Results on one molecule are retold here after patent US20230062248A1, “METHODS FOR PREDICTING IXABEPILONE RESPONSIVENESS IN CANCER PATIENTS” (Allarity Therapeutics Europe ApS, priority 2020, published 2023).

The assay concerns breast cancer patients. The experiment in a line: Pathological complete remission (pCR) in breast cancer patients treated neoadjuvantly with ixabepilone, split by DRP prediction score (GSE41998). It counts as in vivo, human. The conditions noted are these: pre-treatment biopsy. The method, then:
An mRNA-based predictor of responsiveness to ixabepilone was developed according to the methods of the invention and applied to gene expression data prepared using clinical samples from breast cancer patients, which was downloaded from Gene Expression Omnibus under accession number GSE41998 (FIG. 1). The samples were diagnostic biopsies analyzed with Affymetrix GeneChips. All the genes listed in Table 2 were measured from clinical samples on the Affymetrix GeneChip and their mean expression subtracted from the mean of all the genes in Table 1. The difference (e.g., a difference score) was then compared to a difference score produced using measured levels of the sensitivity and resistance biomarkers of Tables 1 and 2 from a reference population consisting of 279 breast cancer patients participating in a clinical trial having two treatment arms ((1) ixabepilone and (2) paclitaxel treatment), producing a percentile score on a scale from 0 to 100. As part of the clinical trial, biopsy samples from breast cancer patients later treated neoadjuvantly with ixabepilone were collected prior to treatment. Patients' responses to ixabepilone were subsequently compared to predicted ixabepilone sensitivity using the methods disclosed herein. Patients with pathological complete remission (pCR) were predicted using the disclosed methods to be more sensitive to ixabepilone than patients with no pCR (No_pCR; FIG. 1).

In the case of `C/C(=C\c1csc(C)n1)[C@@H]1C[C@@H]2O[C@]2(C)CCC[C@H](C)[C@H](O)[C@@H](C)C(=O)C(C)(C)[C@@H](O)CC(=O)N1` [ixabepilone, (1S,3S,7S,10R,11S,12S,16R)-7,11 dihydroxy-8,8,10,12,16-pentamethyl-3-[(1E)-1-methyl-2-(2-methyl-4-thiazolyl)ethenyl] 17-oxa-4-azabicyclo[14.1.0] heptadecane-5,9-dione], the “Non responders (no pCR), number of patients” value is recorded as 52 (DRP negative (<=50)) and 45 (DRP positive (>50)). Further, the “Responders (pCR), number of patients” value by setting is: (DRP negative (<=50)) 8; (DRP positive (>50)) 27.
